# In US6087131A, “β-glucosidase from filamentous fungi, and uses thereof” (Institut National de la Recherche Agronomique - I.N.R.A., priority 1995, dated 2000):
# pKi: −log10 of the molar value.
# Assays:
# Type in all cases: biochemical
# [1] = target: T1, β-glucosidase of A. niger purified from the KLERZYME enzymatic preparation (Aspergillus niger, UniProt A2RAL4); test: Inhibition of KLERZYME β-glucosidase activity by glucose or δ-gluconolactone, PNPG as substrate
# T1 construct: purchased GIST-BROCADES, SECLIN, FRANCE
# Description: (§1) The assay of the β-glucosidase activity is carried out by incubating, for 20 minutes at 40° C., 1 volume of enzymatic sample with 1 volume of p-nitrophenol β-D-glucoside (PNPG) (4 mM in 100 mM acetate buffer, pH 4.4). The quantity of PNP (pnitrophenol) liberated is estimated by adding 6 volumes of 0.1 M Na2 CO3 and monitoring the absorbance reading at 400 nm. The enzymatic activity is expressed in nanokatals per ml (nkat/ml) of enzymatic solution. One nanokatal corresponds to the number of nanomoles of PNP liberated per second under the abovementioned conditions.
# (§2) The residual enzymatic activity is estimated after incubating the mixture for 20 minutes at 40° C.
# [2] = system: β-glucosidase BGI of A. oryzae (CBS 12559), molecular mass greater than 130,000; test: Inhibition of β-glucosidase BGI activity by glucose or δ-gluconolactone, PNPG as substrate
# Description: as §1, §2
# [3] = system: β-glucosidase BGII of A. oryzae (CBS 12559), exocellular, molecular mass about 30,000; test: Inhibition of β-glucosidase BGII activity by glucose or δ-gluconolactone, PNPG as substrate; details: PNPG 4 mM, 20 minutes at 40° C.
# Description: as §1, §2
# T1 sequence (A2RAL4 20-860): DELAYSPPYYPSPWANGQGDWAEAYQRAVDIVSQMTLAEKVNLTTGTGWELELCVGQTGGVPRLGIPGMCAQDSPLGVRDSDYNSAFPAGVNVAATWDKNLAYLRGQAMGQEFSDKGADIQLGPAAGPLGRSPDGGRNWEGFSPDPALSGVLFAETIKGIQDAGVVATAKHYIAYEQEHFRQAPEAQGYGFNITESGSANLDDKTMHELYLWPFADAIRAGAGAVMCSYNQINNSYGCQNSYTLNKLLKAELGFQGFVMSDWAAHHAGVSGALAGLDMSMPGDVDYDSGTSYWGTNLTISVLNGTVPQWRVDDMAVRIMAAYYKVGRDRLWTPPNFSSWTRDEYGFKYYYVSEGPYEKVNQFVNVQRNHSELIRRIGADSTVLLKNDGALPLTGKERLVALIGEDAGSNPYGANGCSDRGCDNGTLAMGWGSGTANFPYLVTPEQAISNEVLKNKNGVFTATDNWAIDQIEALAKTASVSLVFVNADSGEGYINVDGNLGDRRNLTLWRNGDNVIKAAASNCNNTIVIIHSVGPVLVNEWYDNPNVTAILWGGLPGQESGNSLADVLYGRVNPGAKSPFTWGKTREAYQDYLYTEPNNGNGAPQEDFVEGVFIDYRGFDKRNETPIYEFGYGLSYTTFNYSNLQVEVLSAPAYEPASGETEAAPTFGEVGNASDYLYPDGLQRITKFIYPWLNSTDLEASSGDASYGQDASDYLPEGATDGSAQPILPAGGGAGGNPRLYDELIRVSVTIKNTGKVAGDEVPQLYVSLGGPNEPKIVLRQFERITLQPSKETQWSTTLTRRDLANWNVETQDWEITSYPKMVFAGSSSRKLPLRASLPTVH
Compound,"inhibition in the presence of gluconolactone ([1]; KLERZYME β-glucosidase, 1 g/l of gluconolactone, PNPG 4 mM, 20 minutes at 40° C.)","inhibition in the presence of gluconolactone ([2]; 1 g/l of gluconolactone, PNPG 4 mM, 20 minutes at 40° C.)",activity retained in the presence of gluconolactone ([3]; 1 g/l of gluconolactone),activity retained in the presence of gluconolactone ([3]; 10 g/l of gluconolactone) [%],"remaining activity at 25000 µg/mL ([1]; 20 min, pH 4.4, read-out: activity remaining in the presence of glucose) [%]","inhibition in the presence of glucose ([1]; KLERZYME β-glucosidase, 50 g/l of glucose, PNPG 4 mM, 20 minutes at 40° C.)","activity remaining in the presence of glucose ([2]; 25 g/l of glucose, PNPG 4 mM, 20 minutes at 40° C.)","inhibition in the presence of glucose ([2]; 50 g/l of glucose, PNPG 4 mM, 20 minutes at 40° C.)","pKi ([2]; read-out: inhibition constant (Ki) for glucose, with respect to PNPG, Lineweaver-Burk representation, competitive inhibitor)",activity retained in the presence of glucose ([3]; 25 g/l of glucose),inhibition in the presence of glucose ([3]; 100 g/l of glucose) [%]
"O=C1O[C@H](CO)[C@@H](O)[C@H](O)[C@H]1O [gluconolactone, δ-gluconolactone]",practically completely inhibited,practically completely inhibited,more than 30%,20,–,–,–,–,–,–,–
OC[C@H]1OC(O)[C@H](O)[C@@H](O)[C@@H]1O (some centres unmarked) [glucose],–,–,–,–,~10,practically completely inhibited,about 15%,practically completely inhibited,2.46,about 80%,57
